# Measurements taken from PubChem BioAssay (NCI).
#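 Following 48 hours of exposure in 96-well plates, responses at five concentrations were used to interpolate endpoints linearly. GI50 marks 50% less growth. TGI: concentration producing complete growth inhibition.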
# Columns and labels:
# Assay in all cases: NCI anticancer screen, dose series, 48 h
# [1] = system: 786-0 renal
# [2] = system: ACHN renal
# [3] = system: M14 melanoma
# [4] = system: MALME-3M melanoma
# [5] = system: MDA-MB-435
# [6] = system: NCI-H23 lung
# [7] = system: OVCAR-8 ovarian
# [8] = system: SNB-75 CNS
# [9] = system: UACC-62 melanoma
# [10] = system: DLD-1 colon
# [11] = system: HOP-18 NSCLC
# [12] = system: M19-MEL melanoma
SMILES,TGI [1],TGI [2],TGI [3],TGI [4],TGI [5],TGI [6],TGI [7],TGI [8],TGI [9],GI50 [2],GI50 [3],GI50 [4],GI50 [5],GI50 [6],GI50 [7],GI50 [8],GI50 [9],TGI [10],TGI [11],TGI [12]
CCN1CCN(c2nc3ccccc3nc2C(=O)c2ccc(OC)c(OC)c2)CC1,25.7 µM,26.8 µM,31.3 µM,36.5 µM,90.6 µM,98.4 µM,29.9 µM,30.1 µM,> 100 µM,–,–,–,–,–,–,–,–,–,–,–
CC1C(=O)c2cc3c(cc2CCN(C)Cc2c1ccc1c2OCO1)OCO3 (stereo not drawn),–,> 75 µg/mL,> 75 µg/mL,> 75 µg/mL,> 75 µg/mL,> 75 µg/mL,> 75 µg/mL,> 75 µg/mL,> 75 µg/mL,> 75 µg/mL,43.6 µg/mL,> 75 µg/mL,47.7 µg/mL,> 75 µg/mL,> 75 µg/mL,> 75 µg/mL,45.2 µg/mL,–,–,–
O=C1/C(=C/c2[nH]ncc2-c2ccc(Cl)cc2)C(=O)N(c2ccccc2)C1c1ccccc1 (stereo not drawn),44.7 µM,85.2 µM,26 µM,62.5 µM,35.5 µM,28.8 µM,–,–,27.8 µM,–,–,–,–,–,–,–,–,–,–,–
Clc1ccc(Nc2nc(Nc3ccccc3)nc(Nc3ccc(-c4cc(-c5ccc(Cl)cc5)on4)cc3)n2)cc1,–,> 100 µM,–,93 µM,69.7 µM,60.4 µM,> 100 µM,> 100 µM,72.4 µM,21.9 µM,–,31.5 µM,17.8 µM,18.4 µM,21.4 µM,21.6 µM,16.7 µM,–,–,–
COc1cccc(/C=N/[N-]C(N)=O)c1[O-].[Ni+2].[OH3+],0.474 µM,2.07 µM,2.08 µM,2.2 µM,–,0.735 µM,1.66 µM,1.57 µM,1.35 µM,–,–,–,–,–,–,–,–,–,–,–
CN(C)C(=O)OC1=CC2CCC(C1)N2C (stereo not drawn),> 100 µM,> 100 µM,> 100 µM,> 100 µM,> 100 µM,> 100 µM,> 100 µM,> 100 µM,> 100 µM,–,–,–,–,–,–,–,–,–,–,–
COc1cc(C2c3cc4c(cc3[C@@H](Nc3ccc(Oc5ccccc5)cc3)C3COC(=O)[C@H]23)OCO4)cc(OC)c1O (stereo partly drawn),–,–,–,> 100 µM,–,6.68 µM,> 100 µM,96.9 µM,22.9 µM,–,–,–,–,–,–,–,–,> 100 µM,> 100 µM,> 100 µM
CC1=C[C@@H](C)C[C@]2(C)CC[C@H](O2)[C@]23CC[C@](CO)(C[C@H](O2)[C@@H]2O[C@@](C)(CC2=O)[C@@H](O)[C@H]2CC[C@@]4(CCC[C@@H](O4)[C@H](C)C(=O)O[C@H]4C[C@H]([C@]5(O)OCC[C@H](C)[C@@H]5O)O[C@H]4C=C1)O2)O3,–,> 10 µM,> 10 µM,0.196 µM,> 10 µM,–,> 4.19 µM,0.00179 µM,> 9.63 µM,–,–,–,–,–,–,–,–,–,–,–
O=C(CC(c1ccccc1)C1C(=O)NC(=S)NC1=O)c1ccc([N+](=O)[O-])cc1 (stereo not drawn),> 100 µM,> 100 µM,> 100 µM,> 100 µM,> 100 µM,> 100 µM,> 100 µM,> 100 µM,> 100 µM,–,–,–,–,–,–,–,–,–,–,–
O/C(=C\c1nc2ccccc2nc1/C=C(\O)c1ccc(F)cc1)c1ccc(F)cc1,> 100 µM,> 100 µM,> 100 µM,> 100 µM,> 100 µM,> 100 µM,> 100 µM,> 100 µM,> 100 µM,–,–,–,–,–,–,–,–,–,–,–
CC(C)CC1c2[nH]c3ccccc3c2C[C@H]2C(=O)NC(CCCCNC(=O)OC(C)(C)C)C(=O)N12 (stereo partly drawn),50.7 µM,> 100 µM,> 100 µM,78.5 µM,> 100 µM,> 100 µM,> 100 µM,–,> 100 µM,–,–,–,–,–,–,–,–,–,–,–
Cc1oc(N)c(S(=O)(=O)c2cc3ccccc3n(O)c2=N)c1C,> 100 µM,> 100 µM,> 100 µM,> 100 µM,> 100 µM,> 100 µM,> 100 µM,> 100 µM,> 100 µM,–,–,–,–,–,–,–,–,–,–,–
O=C(Nc1ccc(-n2ccc3c(NC(=O)c4ccccc4)nccc32)cc1)Nc1cccc(C(F)(F)F)c1,–,19.6 µM,15.7 µM,31.2 µM,21.3 µM,17.6 µM,17.9 µM,23.3 µM,20.4 µM,5.72 µM,3.83 µM,13.7 µM,4.57 µM,3.28 µM,4.35 µM,7.67 µM,7.36 µM,–,–,–
N=c1ccc2nc(N)nn(O)c-2c1,> 100 µM,> 100 µM,> 100 µM,–,> 100 µM,> 100 µM,> 100 µM,> 100 µM,> 100 µM,–,–,–,–,–,–,–,–,–,–,–
CC1(C(=O)O)C[C@](C)(C(=O)OCc2ccccc2)C[C@](C)(C(=O)OCc2ccccc2)C1 (stereo partly drawn),> 100 µM,57.5 µM,> 100 µM,> 100 µM,> 100 µM,56.6 µM,> 100 µM,79.7 µM,45.4 µM,–,–,–,–,–,–,–,–,–,–,–
CS(C)(=O)=Nn1c(=O)n2n(c1=O)C1c3ccccc3C2c2ccccc21,–,> 100 µM,> 100 µM,> 100 µM,> 100 µM,> 100 µM,> 100 µM,–,> 100 µM,–,–,–,–,–,–,–,–,–,–,–
